Test results taken from patent publication US11260060B2, “Methods and formulations for treatment of and/or protection against acute liver failure and other hepatotoxic conditions” (EGETIS THERAPEUTICS AB, priority 2016, dated 2022).

Assays:
[1] = system: acetaminophen-induced ALF in male B6C3F1 mice; assay: Animal deaths in acetaminophen-induced ALF mice within 12 hour sampling period; format: in vivo; details: within 12 hours after APAP 300 mg/kg i.p., i.v. treatment 1-6 hours post APAP, pooled doses
Description: This Example studied the pharmaceutical effects of individual and combined therapies on animal deaths and involved male B6C3F1 mice. Even though serum enzyme activity studies are strongly indicative of liver failure or protection, it is also important to consider other data such as that related to subject animal deaths (%) as a function of the pharmacological treatment. The experiments of this Example studied the pharmaceutical effects of individual and combined therapies on animal deaths in male B6C3F1 mice. The mice were fasted for 8-10 hours and ALF was induced with 300 mg/kg acetaminophen (APAP), i.p., with treatment as specified in the following test groups: • APAP control (n=81, APAP 300 mg/kg i.p.), • NAC (n=53, 30-300 mg/kg i.v., 1-6 hours post APAP), • CaM (n=97, 0.3-10 mg/kg i.v., 1-6 hours post APAP), • CaDPDP (n=10, 3-10 mg/kg i.v., 6 hours post APAP), and • NAC/CaM (n=28, NAC 300 mg/kg, combined with 0.3-10 mg/kg CaM i.v., 2.5-6 hours post APAP).

[2] = system: acetaminophen-induced ALF in male B6C3F1 mice; assay: Acetaminophen-induced ALF mouse model, ALAT at 12 hours; format: in vivo; details: NAC 30-300 mg/kg 1 hour post 300 mg/kg i.p. acetaminophen, FIG. 7
Experimental: In each experiment, an i.p. injection of 300 mg/kg acetaminophen was made to male B6C3F1 mice to cause acetaminophen-induced ALF. In a first experiment, a 300 mg/kg dosage of NAC was administered 1-6 hours after acetaminophen administration. In a second experiment, NAC was administered in a dosage of 30-300 mg/kg NAC 1 hour after acetaminophen administration. In a third experiment, a dosage of 0.3-10 mg/kg calmangafodipir (CaM) was administered 6 hours post acetaminophen administration. In each experiment, ALAT was measured 12 hours following the i.p. injection of 300 mg/kg acetaminophen. FIGS. 6 to 8 show ALF response to administration of NAC and CaM, as detected by monitoring ALAT. […] FIG. 7 indicates the NAC dose-response of NAC administration of 30-300 mg/kg NAC 1 hour post acetaminophen administration. Mean±SEM ALAT levels at 12 hours following i.p. injection of 300 mg/kg acetaminophen in male B6C3F1 mice (n=4-11 per bar) are shown. […] Median±interquartile ALAT levels at 12 hours following i.p. injection of acetaminophen in male B6C3F1 mice (n=4-16 per bar) are shown. Due to some outlier values, and variability from the two experiments, both of which are not unexpected in such model system studies, the data points are plotted individually as well as the median values±inter-quartile range.

[3] = Forced temperature degradation of a NAC/CaM mixture at 70° C. for 6 hours; format: physicochemical; details: NAC/CaM mixture in deionised water
Description: This Example describes short and long term stability studies involving mixtures of Calmangafodipir and NAC. Each mixture was formed by adding CaM (in the form of a trisodium salt powder) and NAC to deionised water and mixing on a Vortex shaker. The solution was then transferred to an amber vial. In these studies, typically no additives or stabilizers were used. Standard degradation studies undertaken at short term used the known method of “forced” temperature degradation by storing solutions at 70° C. for 6 hours (to indicate general longer-term storage performance). Samples were withdrawn at specified time points and analyzed by standard spectroscopic methods for N-acetylcysteine (NAC), Calmangafodipir (CaM) and Calmangafodipir-related substances.

Molecule | Deaths, % [1] | Deaths, no. [1] | NAC dose-response of ALAT levels [2] | concentration of NAC during forced degradation [3] | Deaths, % ([1]; listed as calmangafodipir) | decrease in CaM concentration during forced degradation [3]
CC(=O)N[C@@H](CS)C(=O)O [NAC, N-acetylcysteine] | 8% | 4 | No clear dose-response could be detected | remained constant |  | 
calmangafodipir [CaM] | 8% | 8 |  |  | 8% | about 1 % per hour
